For 21 compounds, DC50 and IC50 results are on record in EP4567035A1, “NOVEL COMPOUND AS HYPOXIA-INDUCIBLE FACTOR 1(HIF-1) INHIBITOR OR VASCULAR ENDOTHELIAL GROWTH FACTOR (VEGF) INHIBITOR, AND PHARMACEUTICAL COMPOSITION COMPRISING SAME” (Nextgen Bioscience Co., Ltd., priority 2022, dated 2024).

Some results are limits rather than exact numbers.

For one assay, the target named is T1, HIF-1α (Homo sapiens, UniProt Q16665).
T1 construct: endogenous in cells; host or cells: ARPE-19 (ATCC CRL-2302)
Briefly: Analysis of HIF-1α protein expression (Western blot) in ARPE-19 cells under mixed hypoxic condition. The assay is classed as cell-based. The conditions noted are these: values marked * in the table, mixed hypoxic condition (1% oxygen + CoCl2) for 24 hours, concentration range at which HIF-1α expression is reduced by 50% vs untreated control, read-out: IC50 HIF-1α, Hypoxia(24h). Put shortly:
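ARPE-19 cells were pretreated 16 h or 2 h with compound (0.1 nM–10 µM, serum-free DMEM/F12), then held 1 h or 24 h in mixed hypoxia (1% O2 plus CoCl2). HIF-1α was quantified by Western blot against β-actin; the concentration range giving ≥50% reduction vs untreated control was reported.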

For a further assay, the system named is VEGF. The assay can be described thus: Evaluation of VEGF protein secretion level (Human VEGF ELISA) in ARPE-19 cell medium under hypoxic conditions. It counts as cell-based. The conditions noted are these: ARPE-19 cells; pretreated 2 hours, 24 hours hypoxic conditions; secreted VEGF in medium supernatant by ELISA; concentration range reducing VEGF by 50% vs untreated control; read-out: IC50 VEGF. The essentials:
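Human ARPE-19 cells were pretreated 2 h with compound (0.1 nM–10 µM, in DMEM/F12 with 1% FBS), then held 24 h in hypoxia (1% O2, 5% CO2). Secreted VEGF in the supernatant was quantified by ELISA (A450). The value is the concentration range giving ≥50% VEGF reduction versus untreated control.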

T1 sequence (Q16665 whole entry): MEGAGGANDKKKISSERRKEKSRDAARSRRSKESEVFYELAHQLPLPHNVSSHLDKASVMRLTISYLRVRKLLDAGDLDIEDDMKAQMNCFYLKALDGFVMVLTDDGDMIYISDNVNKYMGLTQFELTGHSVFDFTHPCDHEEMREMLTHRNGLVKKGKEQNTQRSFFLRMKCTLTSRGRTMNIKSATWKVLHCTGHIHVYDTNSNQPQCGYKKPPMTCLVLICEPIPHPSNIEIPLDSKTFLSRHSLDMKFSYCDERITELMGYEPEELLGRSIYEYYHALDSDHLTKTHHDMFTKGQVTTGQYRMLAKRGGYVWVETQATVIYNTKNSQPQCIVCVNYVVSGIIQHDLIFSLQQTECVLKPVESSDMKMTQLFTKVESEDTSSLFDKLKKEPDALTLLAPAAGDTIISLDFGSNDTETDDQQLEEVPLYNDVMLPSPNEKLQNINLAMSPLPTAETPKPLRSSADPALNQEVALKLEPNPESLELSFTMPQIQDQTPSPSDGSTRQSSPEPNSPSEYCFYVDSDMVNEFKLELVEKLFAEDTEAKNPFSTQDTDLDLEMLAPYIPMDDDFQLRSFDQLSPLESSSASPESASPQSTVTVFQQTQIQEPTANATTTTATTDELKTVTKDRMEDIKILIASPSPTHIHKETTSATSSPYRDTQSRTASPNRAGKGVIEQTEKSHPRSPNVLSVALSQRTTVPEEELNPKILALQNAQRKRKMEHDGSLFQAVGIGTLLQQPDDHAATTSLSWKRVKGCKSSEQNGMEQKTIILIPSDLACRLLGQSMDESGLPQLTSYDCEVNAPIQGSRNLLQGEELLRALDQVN

Take `O=C(NCc1cc(F)cc(-c2cnn(-c3ccc(F)cc3)c2)c1)c1ncnc2nc(C3CC(C(=O)O)C3)[nH]c12` (stereo not drawn) [Example 106, 3-(6-((3-Fluoro-5-(1-(4-fluorophenyl)-1H-pyrazol-4-yl)benzyl)carbamoyl)-7H-purin-8-yl)cyclobutanecarboxylic acid]: the DC50 on HIF-1α was above 10 µM. Moreover, in the assay on VEGF, the IC50 is above 10 µM.

`O=C(NCc1cc(F)cc(-c2cnn(-c3ccc(F)cc3)c2)c1)c1ccnc2nc(C3CCCC3)[nH]c12` [Example 107, 2-Cyclopentyl-N-(3-fluoro-5-(1-(4-fluorophenyl)-1H-pyrazol-4-yl)benzyl)-1H-imidazo [4,5-b] pyridine-7-carboxamide]: on HIF-1α, the DC50 is above 10 µM. Further, in the assay with VEGF, the IC50 is above 10 µM.

With `O=C(NCc1ccc(-c2cnn(-c3ccc(F)cc3)c2)cc1)c1ncnc2nc(C3CCCC3)[nH]c12` [Example 108, 8-Cyclopentyl-N-(4-(1-(4-fluorophenyl)-1H-pyrazol-4-yl)benzyl)-7H-purine-6-carboxamide], the DC50 on HIF-1α is above 10 µM. For the same compound, the IC50 in the assay with VEGF was above 10 µM.

As for `O=C(NCc1ccc(-c2cnn(-c3ccc(F)cc3)c2)c(F)c1)c1ncnc2nc(C3CCCC3)[nH]c12` [Example 109, 8-Cyclopentyl-N-(3-fluoro-4-(1-(4-fluorophenyl)-1H-pyrazol-4-yl)benzyl)-7H-purine-6-carboxamide], on HIF-1α, the DC50 was above 10 µM. Also, in the assay on VEGF, the IC50 is above 10 µM.

In the case of `O=C(NCc1cc(F)cc(-c2cnn(-c3ccc(F)cc3)c2)c1)c1ncnc2nc(C3CC4(CC4)C3)[nH]c12` [Example 111, N-(3-fluoro-5-(1-(4-fluorophenyl)-1H-pyrazol-4-yl)benzyl)-8-(spiro[2.3]hexan-5-yl)-7H-purine-6-carboxamide], the DC50 on HIF-1α was below 0.1 µM. In the assay with VEGF, the IC50 lay within 0.1 to 1 µM.

In the case of `CN(Cc1cc(F)cc(-c2cnn(-c3ccc(F)cc3)c2)c1)C(=O)c1ncnc2nc(C3CCCC3)[nH]c12` [Example 112, 8-Cyclopentyl-N-(3-fluoro-5-(1-(4-fluorophenyl)-1H-pyrazol-4-yl)benzyl)-N-methyl-7H-purine-6-carboxamide], at HIF-1α, the DC50 was above 10 µM. In the assay on VEGF, the IC50 is above 10 µM.

Regarding `O=C(NCc1cc(F)cc(-c2cnn(-c3ccc(F)cc3)c2)c1)c1ncnc2nc(C3CC4CC4C3)[nH]c12` (stereo not drawn) [Example 113, 8-(Bicyclo[3.1.0]hexan-3-yl)-N-(3-fluoro-5-(1-(4-fluorophenyl)-1H-pyrazol-4-yl)benzyl)-7H-purine-6-carboxamide], on HIF-1α, the DC50 was below 0.1 µM. For the same compound, the IC50 in the assay on VEGF fell in the range of 0.1 to 1 µM.

On to `O=C(NCc1cc(F)cc(-c2cnn(-c3ccc(F)cc3)c2)c1)c1ncnc2nc(C3CC4CCC3C4)[nH]c12` (stereo not drawn) [Example 114, 8-(Bicyclo[2.2.1]heptan-2-yl)-N-(3-fluoro-5-(1-(4-fluorophenyl)-1H-pyrazol-4-yl)benzyl)-7H-purine-6-carboxamide], for which the DC50 at HIF-1α was in the range of 0.1 to 1 µM. Besides, the IC50 with VEGF was in the range of 0.1 to 1 µM.

As for `O=C(NCc1cc(F)cc(-c2cnn(-c3ccc(F)cc3)c2)c1)c1ncnc2nc(C34CCC(C3)C4)[nH]c12` [Example 115, 8-(Bicyclo[2.1.1]hexan-1-yl)-N-(3-fluoro-5-(1-(4-fluorophenyl)-1H-pyrazol-4-yl)benzyl)-7H-purine-6-carboxamide], the DC50 at HIF-1α was in the range of 0.1 to 1 µM. For the same compound, in the assay with VEGF, the IC50 was in the range of 0.1 to 1 µM.

In the case of `O=C(NCc1cc(F)cc(-n2cc(-c3ccc(F)cc3)nn2)c1)c1ncnc2nc(C3CCCC3)[nH]c12` [Example 116, 8-Cyclopentyl-N-(3-fluoro-5-(4-(4-fluorophenyl)-1H-1,2,3-triazol-1-yl)benzyl)-7H-purine-6-carboxamide], the DC50 on HIF-1α lay in the range of 0.1 to 1 µM. The IC50 in the assay on VEGF is above 10 µM.

For the compound `O=C(NCc1cc(F)cc(-c2cnn(-c3ccsc3)c2)c1)c1ncnc2nc(C3CCCC3)[nH]c12` [Example 117, 8-Cyclopentyl-N-(3-fluoro-5-(1-(thiophen-3-yl)-1H-pyrazol-4-yl)benzyl)-7H-purine-6-carboxamide], the DC50 on HIF-1α was below 0.1 µM. The IC50 with VEGF fell in the range of 0.1 to 1 µM.

On to `Cn1ccc(Nc2cc(F)cc(CNC(=O)c3ncnc4nc(C5CCCC5)[nH]c34)c2)n1` [Example 118, 8-Cyclopentyl-N-(3-fluoro-5-((1-methyl-1H-pyrazol-3-yl)amino)benzyl)-7H-purine-6-carboxamide], for which the DC50 at HIF-1α is below 0.1 µM. In addition, in the assay on VEGF, the IC50 lay in the range of 0.1 to 1 µM.

On to `O=C(NCc1cc(F)cc(-c2cn(-c3ccc(F)cc3)nn2)c1)c1ncnc2nc(C3CCCC3)[nH]c12` [Example 119, 8-Cyclopentyl-N-(3-fluoro-5-(1-(4-fluorophenyl)-1H-1,2,3-triazol-4-yl)benzyl)-7H-purine-6-carboxamide], for which the DC50 on HIF-1α lay in the range of 0.1 to 1 µM. Moreover, in the assay with VEGF, the IC50 is above 10 µM.

On to `O=C(NCc1cc(F)cc(Nc2cc[nH]n2)c1)c1ncnc2nc(C3CCCC3)[nH]c12` [Example 120, N-(3-((1H-pyrazol-3-yl)amino)-5-fluorobenzyl)-8-cyclopentyl-7H-purine-6-carboxamide], for which, at HIF-1α, the DC50 is 0.1 to 1 µM. In the assay with VEGF, the IC50 is above 10 µM.

Take `O=C(NCc1cc(F)cc(Nc2ccon2)c1)c1ncnc2nc(C3CCCC3)[nH]c12` [Example 121, 8-Cyclopentyl-N-(3-fluoro-5-(isoxazol-3-ylamino)benzyl)-7H-purine-6-carboxamide]: the DC50 on HIF-1α lay within 0.1 to 1 µM. Besides, the IC50 in the assay with VEGF is above 10 µM.

Take `N#Cc1ccc(Nc2cc(F)cc(CNC(=O)c3ncnc4nc(C5CCCC5)[nH]c34)c2)cc1` [Example 122, N-(3-((4-cyanophenyl)amino)-5-fluorobenzyl)-8-cyclopentyl-7H-purine-6-carboxamide]: the DC50 at HIF-1α is below 0.1 µM. For the same compound, in the assay on VEGF, the IC50 is below 0.1 µM.

In the case of `CC(=O)c1ccc(-n2cc(-c3cc(F)cc(CNC(=O)c4ncnc5nc(C6CCCC6)[nH]c45)c3)cn2)cc1` [Example 123, N-(3-(1-(4-acetylphenyl)-1H-pyrazol-4-yl)-5-fluorobenzyl)-8-cyclopentyl-7H-purine-6-carboxamide], the DC50 on HIF-1α was below 0.1 µM. Besides, the IC50 with VEGF is below 0.1 µM.

In the case of `O=C(NCc1cc(F)cc(-c2cnn(-c3ccoc3)c2)c1)c1ncnc2nc(C3CCCC3)[nH]c12` [Example 124, 8-Cyclopentyl-N-(3-fluoro-5-(1-(furan-3-yl)-1H-pyrazol-4-yl)benzyl)-7H-purine-6-carboxamide], the DC50 at HIF-1α is below 0.1 µM. The IC50 with VEGF lay in the range of 0.1 to 1 µM.

Turning to `O=C(NCc1cc(F)cc(-c2cnn(-c3cnn(Cc4ccccc4)c3)c2)c1)c1ncnc2nc(C3CCCC3)[nH]c12` [Example 125, N-(3-(1'-benzyl-1'H-[1,4'-bipyrazol]-4-yl)-5-fluorobenzyl)-8-cyclopentyl-7H-purine-6-carboxamide], the DC50 on HIF-1α was below 0.1 µM. Further, the IC50 in the assay on VEGF was 0.1 to 1 µM.

On to `NC(=O)c1ccc(Nc2cc(F)cc(CNC(=O)c3ncnc4nc(C5CCCC5)[nH]c34)c2)cc1` [Example 126, N-(3-((4-carbamoylphenyl)amino)-5-fluorobenzyl)-8-cyclopentyl-7H-purine-6-carboxamide], for which, at HIF-1α, the DC50 is below 0.1 µM. Further, the IC50 with VEGF is below 0.1 µM.

`CCOC(=O)c1ccc(Nc2cc(F)cc(CNC(=O)c3ncnc4nc(C5CCCC5)[nH]c34)c2)cc1` [Example 127, Ethyl 4-((3-((8-cyclopentyl-7H-purine-6-carboxamido)methyl)-5-fluorophenyl)amino)benzoate]: the DC50 at HIF-1α was in the range of 0.1 to 1 µM. The 50% inhibitory concentration (IC50) with VEGF is above 10 µM.
